Laboratory results from patent US9296778B2, “3′,5′-cyclic phosphate prodrugs for HCV infection” (Idenix Pharmaceuticals, Inc., priority 2012, dated 2016).
Read-outs that look alike come from different tables or passages of the source.

Assays:
Zluc cells = experiment: cytotoxicity evaluation (CellTiter-Blue Cell Viability Assay); conditions: read-out: HCV Replicon CC50; Zluc cells, CellTiter-Blue
[1] = Stability in fresh human whole blood; assay type: in vitro ADME; conditions: 0.5 μM, percent unchanged test compound
Protocol: (§1) Stability of compounds were determined in fresh human whole blood with K2EDTA as the anticoagulant (stored refrigerated at 2-8° C. and used within 7 days of receipt). The experiment was conducted with three replicates for each time point. Whole blood, pre-incubated at 37° C. for 10-15 minutes, was fortified with a solution of test compound for a final concentration of 0.5 μM and mixed for 30 sec. At intervals (0, 0.5, 1 and 2 hr), three 50 μL aliquots were combined with 200 μL (each) of an ice-cold solution of the internal standard (carbutamide 500 ng/mL in acetonitrile). The samples were vortexed for 30 sec and then centrifuged at 16,100 g for 5 min. The supernatant was analyzed by LC-MS/MS. The MS peak area ratio of the test compounds versus the internal standard was calculated and percent unchanged test compound was calculated for each time point using this ratio.

fresh human hepatocytes = experiment: Release of active metabolite in fresh human hepatocytes; assay type: in vitro ADME; conditions: 10 μM compound; for FHH TP Cmax: fresh human hepatocytes; for FHH TP AUC: fresh human hepatocytes, 6, 24 and 48 hours
Protocol: (§2) Plates of fresh human and mouse hepatocytes were obtained on ice. The medium was removed and replaced with hepatocyte culture medium (William's E supplemented with penicillin-streptomycin, 1% L-glutamine, 1% insulin-transferrin-selenium and 0.1 μM Dexamethasone (Invitrogen) or with Invitro GRO HI medium complemented with Torpedo antibiotics (Celsis)). Cells were left overnight in an incubator at 37° C. to acclimatize to culture and the medium.
(§3) Hepatocyte incubations were conducted at a final volume of 0.5 mL hepatocyte culture medium/well (0.8 million cells/well for human and 0.5 million cells/well for mouse; 12 well plate no overlay, collagen coat). Culture medium from overnight incubation of cells was removed and replaced with fresh medium, pre-warmed to 37° C., containing 10 μM of test compound from a stock solution in DMSO (final DMSO concentration was 0.1%). At each specific time point, incubation medium was removed and cell monolayers were carefully washed two times with ice-cold PBS. Following the last wash, all PBS was carefully removed and 1.0 mL of extraction solution (ice-cold 70% methanol/30% water) added. Cells were scraped off and suspended in the extraction solution, transferred to 2 mL polypropylene microfuge tubes and intracellular contents extracted overnight at −20° C.
(§4) After the overnight treatment the cellular extracts were prepared by centrifugation at 16,000×g for 10 min to remove cellular debris. The remaining sample was then dried using a refrigerated centrivap concentrator. Dry extracts were reconstituted in 1000 μL of HPLC-grade water and centrifuged at 16,000×g for 10 min. Aliquots (100 μL each) of the supernatant were transferred into a 96 well plate and internal standard (4 ng/mL final concentration) was added as the internal standard (IS) for LC-MS/MS analysis.
(§5) The incubation time points were 6, 24 and 48 hours for human hepatocytes and 1, 4, 8, 12 and 24 hours for mouse hepatocytes.

[2] = Liver pharmacokinetics following a single oral dose in CD-1 mice; assay type: in vivo; conditions: single oral dose 25 mg/kg in PEG 200, CD-1 male mice; given at 1 μmol/kg; 25 mg/kg
Protocol: (§6) A single oral dose of test compound at 25 mg/kg in PEG 200 (dose volume 5 mL/kg) was administered to nine CD-1 male mice. Five untreated animals were used for the collection of control plasma and liver. Terminal plasma and liver samples were collected from three animals per time point at 4, 12 and 24 hours post dose. Liver specimens were collected from all animals immediately after the incision. Freezing forceps stored in liquid nitrogen were used to freeze the liver before excision.
Liver samples were analyzed for the active species 2′-methylguanosine triphosphate (2′-MeGTP) by LC-MS/MS. 2′-MeGTP levels were assayed by homogenizing (on ice) a known weight of mouse liver with 4× volume of 0.95 M trichloroacetic acid (TCA). Internal standard solution was added to the homogenate followed by neutralization with 20% ammonium hydroxide solution and addition of 500 μL 1% formic acid. The tissue samples were extracted by weak anion exchange solid phase extraction (SPE). Post extraction, the eluates were evaporated under nitrogen, followed by reconstitution before injection onto the LC-MS/MS system. The samples were chromatographed on a Luna NH2 column using a gradient system of ammonium acetate (1 mM to 20 mM and pH 8.0 to pH 10.0) in water and acetonitrile (70:30). The analyte was detected and quantified by tandem mass spectrometry in positive ion mode on an API4000 equipped with a Turbo Ionspray® interface. The calibration range was 10 to 10000 pmol/mL in mouse liver homogenate (50 to 50000 pmol/g of mouse liver).

mouse hepatocytes = experiment: Release of active metabolite in mouse hepatocytes; assay type: in vitro ADME; conditions: 10 μM compound; for MsH Cmax: mouse hepatocytes; for MsH AUC: mouse hepatocytes, 1, 4, 8, 12 and 24 hours
Protocol: as §2, §3, §4, §5

[3] = Plasma pharmacokinetics following a single oral dose in CD-1 mice; assay type: in vivo; conditions: single oral dose 25 mg/kg in PEG 200, CD-1 male mice; given at 1 μmol/kg; 25 mg/kg
Protocol: as §6
Plasma samples were analyzed for 2′-methylguanosine (2′-MeG) by LC-MS/MS. The internal standard (IS) was 2′-MeG-D3. For protein precipitation and extraction, each plasma sample (50 μL) was treated with 500 μL of 0.2% formic acid in acetonitrile and 20 μL of the internal standard working solution. After vortexing and centrifugation, 500 μL of the sample extracts were transferred to a new plate, dried under N2 at ˜28° C. and reconstituted with 75 μL of 0.2% FA in water. The extracts were chromatographed on an Aquasil C18 column using a gradient system of 0.2% formic acid in water and acetonitrile. The analytes were detected and quantified by tandem mass spectrometry in positive ion mode on an MDS Sciex API5000 equipped with a Turbo Ionspray® interface. The calibration range was 0.500 (LLOQ) to 200 ng/mL in mouse plasma.

HCV genotype 1b replicon = experiment: HCV Replicon Assay; assay type: cell-based; conditions: Zluc cells (Huh-7-derived, HCV genotype 1b replicon, luciferase reporter), 72 hours, read-out: HCV Replicon EC50
Protocol: Huh-7-derived cell line (Zluc) that harbors an HCV genotype 1b replicon and a luciferase reporter gene was grown in Dulbecco's Modified Eagle Medium (DMEM) supplemented with 10% fetal bovine serum, 2 mM GlutaMAX, 1% MEM nonessential amino acids, 100 IU/mL penicillin, 100 μg/mL streptomycin, and 0.5 mg/mL Geneticin® (G418). For dose response testing the cells were seeded in 96-well plates at 7.5×10^3 cells per well in a volume of 50 μL, and incubated at 37° C./5% CO2. Drug solutions were made up freshly in Huh-7 media as 2× stocks. Ten additional 5-fold dilutions were prepared from these stocks in DMEM without G418. At least three hours after Zluc cells were seeded, drug treatment was initiated by adding 50 μL of drug dilutions to the plates in duplicate. Final concentrations of drug ranged from 100 μM to […]. Cells were then incubated at 37° C./5% CO2. Alternatively, compounds were tested at two concentrations (1 μM and 10 μM). […] For this, media was removed from the plates via gentle tapping. Fifty microliters of ONE-glo luciferase assay reagent was added to each well. The plates were shaken gently for 3 min at room temperature and luminescence was measured on a Victor^3 V 1420 multilabel counter (Perkin Elmer) with a 1 second read time using a 700 nm cut-off filter. The EC50 values were calculated from dose response curves from the resulting best-fit equations determined by Microsoft Excel and XLfit 4.1 software. When screening at two fixed concentrations, the results were expressed as % inhibition at 1 μM and 10 μM.

Stability in mouse blood = assay type: in vitro ADME; conditions: on ice, percent unchanged test compound
Protocol: as §1
The stability in mouse blood was determined on ice at 0, 0.5 and 1 hr as herein.

[4] = Stability in simulated intestinal fluid; assay type: in vitro ADME; conditions: 100 μM, 2 hours at 37° C., percent of the peak area at time zero
Protocol: (§7) Simulated gastric and intestinal fluids containing pepsin and pancreatin respectively were prepared according to the U.S. Pharmacopoeia USP291 procedure (www.pharmacopeia.cn/v29240/usp29nf24s0_ris1s126.html). Compounds (final concentration 100 μM) were incubated in duplicate in the appropriate fluid for 2 hours at 37° C. The samples were quenched with 200 μl cold acetonitrile, vortexed for 30 seconds and then centrifuged at 16,100 g for 10 min. The supernatants were analyzed by HPLC on a C-18 column with UV detection at 252 nm. The time 0 samples were prepared by adding SGF or SIF fluid to the quenching solvent followed by the test compound. Stability of the compounds was determined by peak area of the test compounds after incubation and calculated as percent of the peak area observed at time zero.

[5] = Stability in simulated gastric fluid; assay type: in vitro ADME; conditions: 100 μM, 2 hours at 37° C., percent of the peak area at time zero
Protocol: as §7

in vitro = conditions: human, HCV Replicon CC50, Zluc cells, CellTiter-Blue

Structure (SMILES)	CC50 (Zluc cells) [µM]	Stability WB_Human (37° C.; 2 hr) [1] [%]	FHH TP Cmax (fresh human hepatocytes)	FHH TP AUC (fresh human hepatocytes)	Ms Liver 2′-MeGTP AUC [2] [pmol · hr/g at 1 μmol/kg]	MsH Cmax (mouse hepatocytes) [pmol/mill cells]	MsH AUC (mouse hepatocytes) [pmol · hr/mill cells]	Ms Plasma 2′-MeG AUC [3] [pmol · hr/mL at 1 μmol/kg]	Ms Plasma 2′-MeG Cmax [3] [pmol/mL at 1 μmol/kg]	EC50 (HCV genotype 1b replicon) [µM]	Stability WB_Mouse (ice; 1 hr) (Stability in mouse blood) [%]	Stability SIF [4] [%]	Stability SGF [5] [%]	CC50 (in vitro) [µM]	EC50 (HCV genotype 1b replicon; Hepatitis C virus, 72 h) [µM]
CCOc1nc(N)nc2c1ncn2[C@@H]1O[C@@H]2COP(=O)(OCCCC(=O)OC(C)C)O[C@H]2[C@@]1(C)O (single isomer, unassigned) [Compound 1 Diastereomer 2]	< 50	87	278 pmol/mill cells	10125 pmol · hr/mill cells	7400	330	8363	68	8.6	< 0.25	1	83			
CCOc1nc(N)nc2c1ncn2[C@@H]1O[C@@H]2COP(=O)(OCCSSC(C)(C)C)O[C@H]2[C@@]1(C)F (single isomer, unassigned) [Compound 24 Diastereomer 2]	< 50	73	105 pmol/mill cells	3031 pmol · hr/mill cells						< 0.25		47	30		
CCOc1nc(N)nc2c1ncn2[C@@H]1O[C@@H]2COP(=O)(OCCSC(=O)C(C)(C)CO)O[C@H]2[C@@]1(C)O (single isomer, unassigned) [Compound 4 Diastereomer 2]	< 50	59	681 pmol/mill cells	24086 pmol · hr/mill cells	1100	386	13328	24	1.7	< 0.25	105	77			
CCOc1nc(N)nc2c1ncn2[C@@H]1O[C@@H]2COP(=O)(OC[C@H](C)NC(=O)OC)O[C@H]2[C@@]1(C)F (single isomer, unassigned; diastereomer 2) [Compound 9 Diastereomer 2]	> 50	85	BLD^a	BLD^a						< 0.25		105	85		
CCOc1nc(N)nc2c1ncn2[C@@H]1O[C@@H]2COP(=O)(OCCCC(=O)OC(C)C)O[C@H]2[C@@]1(C)O (single isomer, unassigned) [Compound 1 Diastereomer 1]		73	85 pmol/mill cells	3425 pmol · hr/mill cells	560			9	0.56		79	105		> 50	0.25 to 1
CCOc1nc(N)nc2c1ncn2[C@@H]1O[C@@H]2COP(=O)(OCCSC(=O)C(C)(C)CO)O[C@H]2[C@@]1(C)F (single isomer, unassigned) [Compound 5 Diastereomer 2]	> 50	46	448 pmol/mill cells	9694 pmol · hr/mill cells	2600	302	8713	220	23	< 0.25	93	77			
CCOc1nc(N)nc2c1ncn2[C@@H]1O[C@@H]2COP(=O)(OCCSC(=O)C(C)(C)CO)O[C@H]2[C@@]1(C)O (single isomer, unassigned) [Compound 4 Diastereomer 1]		82	120 pmol/mill cells	4110 pmol · hr/mill cells	480	468	15078	6.7	0.5			105		< 50	< 0.25
